According to patent US4387106A, “Method of treating atherosclerosis with di(aralkyl)ureas and di(aralkyl)thioureas” (American Cyanamid Company, priority 1982, dated 1983):

Legend:
Cholesterol absorption [1] = details: po, 0.03 % of diet, 336 h
Protocol: Compounds were tested in vitro for their ability to inhibit the enzyme fatty acyl CoA:cholesterol acyl transferase (ACAT) and in vivo for serum hypolipidemic activity as measured by their ability to inhibit lipid absorption in rats.
Inhibition of Cholesterol absorption was determined by feeding male Sprague-Dawley rats, weighing 150-170 g., A 1% cholesterol:0.5% cholic acid diet for 2 weeks. The diet also contained compounds being tested at a dose of 0.03% of the diet. Control rats were fed the same diet without any compound. At the end of the test, the rats were sacrificed by decapitation. Blood is collected, centrifuged at 1.5 kg times gravity for 10 minutes at 4° C., and the serum is then analyzed for cholesterol and triglycerides enzymatically by the method of Trinder, P., Analyst, 77, 321 (1952) on a Centrifichem 400 Analyzer. Livers are removed, a 0.4 g sample is taken from the center of the large lobe, and the sample is subjected to saponification using 25% saturated potassium hydroxide in ethanol. The resulting neutral sterols are extracted with petroleum ether and extract analyzed for cholesterol. The effectiveness of the compound in inhibiting cholesterol absorption is measured by the lowering of either serum cholesterol or liver cholesterol relative the values for control rats.

[2] = biological target: T1, fatty acyl CoA:cholesterol acyl transferase (ACAT) (Rattus norvegicus, UniProt O70536); test: In vitro inhibition of fatty acyl CoA:cholesterol acyl transferase (ACAT), rat adrenal supernatant; assay type: biochemical; details: final concentration 5.2 μg./ml., pH 7.4, 37° C., oleoyl CoA (14C)
T1 construct: The supernatant, containing the microsomal fraction, served as the source of the cholesterol-esterifying enzyme; from tissue; host or cells: rat adrenals, homogenate, 1000 x g supernatant containing the microsomal fraction
T1 sequence (O70536 1-545): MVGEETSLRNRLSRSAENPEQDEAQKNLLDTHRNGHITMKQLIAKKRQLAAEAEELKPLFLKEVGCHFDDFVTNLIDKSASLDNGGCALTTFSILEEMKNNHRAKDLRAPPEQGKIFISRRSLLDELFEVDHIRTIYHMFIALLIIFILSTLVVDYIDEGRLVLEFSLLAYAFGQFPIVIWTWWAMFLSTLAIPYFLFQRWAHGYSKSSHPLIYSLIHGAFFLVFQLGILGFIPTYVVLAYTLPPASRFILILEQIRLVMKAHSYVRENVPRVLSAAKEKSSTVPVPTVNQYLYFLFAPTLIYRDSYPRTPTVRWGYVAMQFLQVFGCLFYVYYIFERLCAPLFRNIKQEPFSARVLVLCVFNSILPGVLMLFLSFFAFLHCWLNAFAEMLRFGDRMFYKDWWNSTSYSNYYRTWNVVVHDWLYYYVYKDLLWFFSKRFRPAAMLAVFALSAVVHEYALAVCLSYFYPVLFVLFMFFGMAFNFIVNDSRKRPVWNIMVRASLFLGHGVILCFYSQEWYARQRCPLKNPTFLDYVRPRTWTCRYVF
Protocol: The compounds were tested for their ability to inhibit ACAT according to the following procedure:
Rat adrenals were homogenized in 0.2 M monobasic potassium phosphate buffer, pH 7.4, and centrifuged at 1000 times gravity for 15 minutes at 5° C. The supernatant, containing the microsomal fraction, served as the source of the cholesterol-esterifying enzyme, fatty acyl CoA:cholesterol acyl transferase (ACAT). A mixture comprising 50 parts of adrenal supernatant, 10 parts of albumin (BSA) (50 mg./ml.), 3 parts of test compound (final concentration 5.2 μg./ml.) and 500 parts of buffer was preincubated at 37° C. for 10 minutes. After treatment with 20 parts of oleoyl CoA (^14 C--0.4 μCi) the mixture was incubated at 37° C. for 10 minutes. A control mixture, omitting the test compound, was prepared and treated in the same manner. The lipids from the incubation mixture were extracted into an organic solvent and separated by thin-layer chromatography. The cholesteryl ester fraction was counted in a scintillation counter.

Cholesterol absorption [3] = details: po, 336 h
Protocol: Inhibition of cholesterol absorption was determined by feeding male Sprague-dawley rats weighing 150-170 g. a 1% cholesterol:0.5% cholic acid diet for 2 weeks. The diet also contained compounds being tested at doses of between 0.01% and 0.1% of the diet. […] Feces were collected for each 24 hour period for the remaining 5 days during which the rats were maintained on the 1% cholesterol:0.5% cholic acid plus test compound diet. Fecal ^14 C-neutral sterols were extracted with petroleum ether from saponified feces by the method of Grundy, S. M. et. al., J. Lipid Res., 6, 397 (1965) and counted in a scintillation counter. Acidic sterols (bile acids) were extracted by acidifying the saponified feces and extracting in chloroform:methanol (2:1) and counting the chloroform phase in a scintillation counter. Total extraction of radioactivity (98-100%) from saponified feces is realized by this procedure.
The effect of test compounds on cholesterol absorption was determined by:
1. increase in excreted ^14 C-neutral sterol
2. decrease in excreted ^14 C-acidic sterol
3. decrease in ^14 C-cholesterol or ^14 C-cholesteryl ester in the liver.
4. decrease in ^14 C-cholesterol or ^14 C-cholesteryl ester in the serum.

Structure (SMILES) | inhibition at 5.2 µg/mL [2] | Result (inhibition of cholesterol absorption: lowering of serum or liver cholesterol relative to control) (Cholesterol absorption [1]) | Result (inhibition of cholesterol absorption, 14C-sterol excretion) (Cholesterol absorption [3])
Cc1cc(C)c(NC(=O)N(Cc2ccccc2)Cc2ccccc2)c(C)c1 [1,1-Dibenzyl-3-(2,4,6-trimethylphenyl)urea] | 36.9% | Active | Active
O=C(Nc1ccc(Cl)cc1C(F)(F)F)N(Cc1ccccc1)Cc1ccccc1 [1,1-Dibenzyl-3-(4-chloro-2-trifluoromethylphenyl)urea] | 81.8% | Active | Active
Cc1cccc(NC(=O)N(Cc2ccccc2)Cc2ccccc2)c1C [1,1-Dibenzyl-3-(2,3-dimethylphenyl)urea] | 88.1% | Active | Active
COc1ccc(C)cc1NC(=O)N(Cc1ccccc1)Cc1ccccc1 [1,1-Dibenzyl-3-(2-methoxy-5-methylphenyl)urea] | 87.8% | Active | Active
Cc1ccc(NC(=S)N(Cc2ccccc2)Cc2ccccc2)c(C)c1 [1,1-Dibenzyl-3-(2,4-dimethylphenyl)thiourea] | 78.7% | Active | 
Cc1cccc(NC(=S)N(Cc2ccccc2)Cc2ccccc2)c1 [1,1-Dibenzyl-3-(3-methylphenyl)thiourea] | 71.2% | Active | 
Cc1cc(C)c(NC(=O)N(Cc2ccccc2)Cc2ccccc2)cc1C [1,1-Dibenzyl-3-(2,4,5-trimethylphenyl)urea] | 69.1% | Active | 

The next lines start with results.

inhibition at 5.2 µg/mL [2] | Structure (SMILES) | Result (inhibition of cholesterol absorption: lowering of serum or liver cholesterol relative to control) (Cholesterol absorption [1]) | Result (inhibition of cholesterol absorption, 14C-sterol excretion) (Cholesterol absorption [3])
71.8% | Cc1ccc(NC(=O)N(Cc2ccccc2)Cc2ccccc2)cc1C [1,1-Dibenzyl-3-(3,4-dimethylphenyl)urea] | Active | Active
62.7% | Cc1cc(Cl)ccc1NC(=O)N(Cc1ccccc1)Cc1ccccc1 [1,1-Dibenzyl-3-(4-chloro-2-methylphenyl)urea] | Active | Active
89.9% | Cc1ccc(NC(=O)N(Cc2ccccc2)Cc2ccccc2)c(C)c1 [1,1-Dibenzyl-3-(2,4-dimethylphenyl)urea] | Active | Active
94% | Cc1ccc(NC(=O)N(Cc2ccccc2)Cc2ccccc2)cc1Cl [1,1-Dibenzyl-3-(3-chloro-4-methylphenyl)urea] | Active | Active
71.3% | Cc1ccc(Cl)cc1NC(=O)N(Cc1ccccc1)Cc1ccccc1 [1,1-Dibenzyl-3-(5-chloro-2-methylphenyl)urea] | Active | Active
